As usually defined, the IC50 is the point on the concentration scale where inhibition reaches its midpoint.

Read-outs that look alike come from different tables or passages of the source.

The subject of test [1] is caspase-8. Put plainly: Caspase-8 level in MCF-7 cells. It is filed as cell-based, human. The following applies: MCF-7, 10.17 μM.
In test [2] the test system is Bcl-2. Nature of the test: Bcl-2 level in MCF-7 cells. Particulars: MCF-7, 10.17 μM. It is filed as cell-based, human.
The test system of test [3] is caspase-9. Put plainly: Caspase-9 level in MCF-7 cells. Particulars: MCF-7, 10.17 μM. It is filed as cell-based, human.
In test [4] the test system is MCF-7 cells. Nature of the test: Apoptosis assay, annexin V / PI flow cytometry. It is filed as cell-based, human. Particulars: MCF-7, 10.17 μM, 72 h. A general note: In flow cytometry, cells or beads pass a laser one at a time.
Test [5] has as its system MCF-7 cells. Nature of the test: Cell cycle analysis by flow cytometry. It is filed as cell-based, human. The following applies: MCF-7, 10.17 μM, 72 h.
The test system of test [6] is HepG2. Put plainly: MTT anti-proliferative assay, HepG2. It is filed as cell-based, human. The following applies: mean of three experiments.
Test [7] deals with TNF-α. Put plainly: TNF-α level in MCF-7 cells. It is filed as cell-based, human.
The subject of test [8] is MCF-7. Nature of the test: MTT anti-proliferative assay, MCF-7. It is filed as cell-based. The following applies: Homo sapiens, MCF7, read-out: IC50 MCF-7. A general note: Tetrazolium dyes change colour on reduction, which living cells bring about.
Test [9] relates to BAX. Nature of the test: BAX level in MCF-7 cells. The following applies: MCF-7, 10.17 μM. It is filed as cell-based, human.
Test [10] has as its system IL6. Nature of the test: IL6 level in MCF-7 cells. It is filed as cell-based, human.
In test [11] the target is VEGFR-2 (Homo sapiens, UniProt P35968). Nature of the test: biochemical.
VEGFR-2, sequence (P35968 20-1356): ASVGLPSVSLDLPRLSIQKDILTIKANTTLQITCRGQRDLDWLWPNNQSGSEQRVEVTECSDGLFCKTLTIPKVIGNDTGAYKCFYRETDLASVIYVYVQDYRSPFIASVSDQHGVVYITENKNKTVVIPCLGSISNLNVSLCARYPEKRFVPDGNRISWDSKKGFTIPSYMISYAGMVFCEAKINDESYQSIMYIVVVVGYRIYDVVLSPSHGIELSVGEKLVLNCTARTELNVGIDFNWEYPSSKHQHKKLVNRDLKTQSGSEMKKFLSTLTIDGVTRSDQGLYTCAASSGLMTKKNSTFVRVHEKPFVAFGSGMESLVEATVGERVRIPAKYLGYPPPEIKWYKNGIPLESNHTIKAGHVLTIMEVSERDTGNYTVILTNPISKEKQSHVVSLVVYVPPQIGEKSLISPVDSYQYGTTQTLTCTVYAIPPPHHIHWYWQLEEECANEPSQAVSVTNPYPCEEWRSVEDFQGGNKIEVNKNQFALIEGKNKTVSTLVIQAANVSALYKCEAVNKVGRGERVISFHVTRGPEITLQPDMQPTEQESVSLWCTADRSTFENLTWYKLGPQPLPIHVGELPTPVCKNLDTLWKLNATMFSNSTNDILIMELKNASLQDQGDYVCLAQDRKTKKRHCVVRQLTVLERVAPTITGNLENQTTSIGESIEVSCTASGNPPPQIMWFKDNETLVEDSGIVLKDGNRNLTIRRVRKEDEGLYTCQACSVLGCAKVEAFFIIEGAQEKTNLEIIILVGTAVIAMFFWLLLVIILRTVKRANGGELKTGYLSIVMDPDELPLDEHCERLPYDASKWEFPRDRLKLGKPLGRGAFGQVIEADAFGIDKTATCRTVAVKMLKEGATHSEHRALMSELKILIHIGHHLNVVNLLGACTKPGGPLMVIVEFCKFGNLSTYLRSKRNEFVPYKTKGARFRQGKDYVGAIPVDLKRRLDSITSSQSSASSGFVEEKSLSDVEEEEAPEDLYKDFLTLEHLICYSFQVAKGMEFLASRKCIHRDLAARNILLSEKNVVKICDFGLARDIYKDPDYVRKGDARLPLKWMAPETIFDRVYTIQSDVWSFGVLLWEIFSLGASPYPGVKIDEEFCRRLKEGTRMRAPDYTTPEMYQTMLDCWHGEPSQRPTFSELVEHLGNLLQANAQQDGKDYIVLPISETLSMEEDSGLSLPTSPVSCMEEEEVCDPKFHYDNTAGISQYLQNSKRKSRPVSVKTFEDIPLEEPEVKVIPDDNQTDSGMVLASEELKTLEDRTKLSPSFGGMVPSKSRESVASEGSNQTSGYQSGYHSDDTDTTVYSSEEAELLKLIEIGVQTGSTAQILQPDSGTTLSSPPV
Where [12] appears, read: Homo sapiens, HepG2, read-out: IC50 HepG2, MTT assay.

As to `O=C(CSc1nnc(Cn2cnc3sc4c(c3c2=O)CCCC4)o1)N1CCCCC1` [Compound 18, 3-((5-((2-Oxo-2-(piperidin-1-yl)ethyl)thio)-1,3,4-oxadiazol-2-yl)methyl)-5,6,7,8-tetrahydrobenzo[4,5]thieno[2,3-d]pyrimidin-4(3H)-one], in test [1], the “Caspase-8 level increase vs control” value is on record as 2.6 fold. Also, in test [1] (control = 1), the “Protein expression Caspase-8” value worked out at 2.607. For the same molecule, the “Bcl-2 level decrease vs control” value in test [2] was determined as 3.1 fold. The “Protein expression Bcl-2” value in test [2] (control = 1) is reported as 0.315. In test [3], the “Caspase-9 level increase vs control” value is reported as 5.4 fold. The “Protein expression Caspase-9” value in test [3] (control = 1) is listed as 5.422. In [4], the “Apoptosis induced (early + late)” value amounted to 23.35%, the Early apoptosis is on record as 15.96%, the Late apoptosis stood at 7.39% and the Necrosis is on record as 2.41. Further, the “Total (cell death)” value in test [4] stood at 25.76. Besides, in test [5], the “Cell cycle distribution (%) % G2/M” value is recorded as 15.4%, the “Cell cycle distribution (%) %G0–G1” value turned out to be 56.46% and the “Cell cycle distribution (%) %S” value stood at 28.14%. In test [6] (setting [12]), the IC50 came out at 24.5 µM. Besides, the IC50 in test [6] (read-out: IC50 HepG2, MTT assay) stood at 24.3 ± 2.08 µM. The “TNF-α level lower than control” value in test [7] is on record as 2.9 times. In test [7] (control = 1), this molecule came in with a TNF-α level of 0.335. Besides, the IC50 in test [8] came out at 10.2 ± 1.01 µM. In addition, the “BAX level increase vs control” value in test [9] worked out at 3.6 fold. The “Protein expression BAX” value in [9] (control = 1) turned out to be 3.669. The “IL6 level lower than control” value in test [10] was 2.5 times. This molecule registered an IL6 level in test [10] (control = 1) of 0.393.

In the case of `O=C(CSc1nnc(Cn2cnc3sc4c(c3c2=O)CCCC4)o1)Nc1c([N+](=O)[O-])cccc1[N+](=O)[O-]` [Compound 19, N-(2,6-Dinitrophenyl)-2-((5-((4-oxo-5,6,7,8-tetrahydrobenzo[4,5]thieno[2,3-d]pyrimidin-3(4H)-yl)methyl)-1,3,4-oxadiazol-2-yl)thio)acetamide], the half-inhibitory concentration (IC50) was 31.8 ± 1.15 µM in test [6] (setting [12]), 0.29 ± 0.007 µM in [11] and 16.5 ± 1.16 µM in test [8].

With `O=C(CSc1nnc(Cn2cnc3sc4c(c3c2=O)CCCC4)o1)Nc1ccc(Cl)cn1` [Compound 20, N-(5-Chloropyridin-2-yl)-2-((5-((4-oxo-5,6,7,8-tetrahydrobenzo[4,5]thieno[2,3-d]pyrimidin-3(4H)-yl)methyl)-1,3,4-oxadiazol-2-yl)thio)acetamide], the IC50 in test [6] (setting [12]) was 4.84 ± 0.38 µM; in test [8], 5.38 ± 0.45 µM.

With `O=C(CSc1nnc(Cn2cnc3sc4c(c3c2=O)CCCC4)o1)Nc1nccs1` [Compound 21, 2-((5-((4-Oxo-5,6,7,8-tetrahydrobenzo[4,5]thieno[2,3-d]pyrimidin-3(4H)-yl)methyl)-1,3,4-oxadiazol-2-yl)thio)-N-(thiazol-2-yl)acetamide], the concentration for half-maximal inhibition (IC50) in test [6] (setting [12]) is 11.8 ± 1.05 µM; in [11] it was 0.42 ± 0.008 µM; in test [8], 6.31 ± 0.16 µM.

With `O=C(CSc1nnc(Cn2cnc3sc4c(c3c2=O)CCCC4)o1)Nc1nc2ccccc2s1` [Compound 22, N-(Benzo[d]thiazol-2-yl)-2-((5-((4-oxo-5,6,7,8-tetrahydrobenzo[4,5]thieno[2,3-d]pyrimidin-3(4H)-yl)methyl)-1,3,4-oxadiazol-2-yl)thio)acetamide], the 50% inhibitory concentration (IC50) in test [6] (setting [12]) worked out at 5.51 ± 0.25 µM; in [8], 5.73 ± 0.18 µM.

In the case of `CNC(=O)c1cc(Oc2ccc(NC(=O)Nc3ccc(Cl)c(C(F)(F)F)c3)cc2)ccn1` [Sorafenib, reference compound], the IC50 in test [6] (setting [12]) was 13.3 ± 0.3 µM; in test [8], 9.98 ± 0.6 µM.
